Data: patent US20260217701A1, “SELECTIVE BET INHIBITORS AND USES THEREOF” (Tay Therapeutics Limited, priority 2022, published 2026)
Where “and” joins values, the source holds several entries; their conditions need not be identical. Identical values can stand only once.

Tested on: imiquimod-induced psoriasis
Test: Imiquimod-induced psoriasis model
Type: in vivo, mice
Conditions: for PASI Scores / Number Licking / Number Licking + Scratching / Number Scratching / Distance Traveled / Number Rearings: individual animals; for Distance Traveled / Number Rearings: behavioral evaluation
Summary of the method: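 Mice given topical imiquimod (5% cream) daily on depilated backs Days 1–14; Compound A in 5% DMSO/40% PEG-400/55% saline from Day 8, clobetasol topical as reference. Daily PASI (erythema, induration, peeling, each 0–4, summed) Days 8–15; spleen weight, open-field behaviour, serum IL-1B, IL-6, IL-17, TNF-α, IL-22, IL-23 at Day 15.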

[1] = IMI-psoriasis model, behavioral evaluation D15, 1 mg/kg
[2] = IMI-psoriasis model, behavioral evaluation D15, 3 mg/kg
[3] = IMI-psoriasis model, behavioral evaluation D15, 10 mg/kg

Cn1cc(-c2ccccc2)c(-c2cn(C)c(=O)c3[nH]c(-c4cnn(C(F)(F)F)c4)cc23)cc1=O [Compound A, 6-methyl-4-(1-methyl-2-oxo-5-phenyl-1,2-dihydropyridin-4-yl)-2-(1-(trifluoromethyl)-1H-pyrazol-4-yl)-1,6-dihydro-7H-pyrrolo[2,3-c]pyridin-7-one]
PASI Scores (IMI + Compound A 1 mg/kg, D12, 1 mg/kg): 6 and 4 (4×) and 5 (2×) and 3 | PASI Scores (IMI + Compound A 1 mg/kg, D13, 1 mg/kg): 3 (4×) and 2 (2×) and 4 and 5 | PASI Scores (IMI + Compound A 1 mg/kg, D14, 1 mg/kg): 1 (2×) and 2 (3×) and 3 (3×) | PASI Scores (IMI + Compound A 1 mg/kg, D15, 1 mg/kg): 1 (5×) and 2 (2×) and 0 | PASI Scores (IMI + Compound A 3 mg/kg, D8 (day treatment started), 3 mg/kg): 8 and 6 and 7 and 5 and 9 | PASI Scores (IMI + Compound A 3 mg/kg, D9, 3 mg/kg): 8 (3×) and 5 and 6 | PASI Scores (IMI + Compound A 3 mg/kg, D10, 3 mg/kg): 6 and 7 and 4 and 5 (2×) | PASI Scores (IMI + Compound A 3 mg/kg, D11, 3 mg/kg): 4 (2×) and 3 (2×) and 5 | PASI Scores (IMI + Compound A 3 mg/kg, D12, 3 mg/kg): 3 and 4 and 2 and 5 | PASI Scores (IMI + Compound A 3 mg/kg, D13, 3 mg/kg): 2 (3×) and 0 | PASI Scores (IMI + Compound A 3 mg/kg, D14, 3 mg/kg): 2 and 0 (2×) and 1 | PASI Scores (IMI + Compound A 3 mg/kg, D15, 3 mg/kg): 1 (2×) and 0 (2×) | Use Enrichment D1 (IMI-psoriasis model, D1, 1 mg/kg, per cage (two animals)): 4.0 | Use Enrichment D1 (IMI-psoriasis model, D1, 3 mg/kg, per cage (two animals)): 4.0 and 3.5 | Use Enrichment D1 (IMI-psoriasis model, D1, 10 mg/kg, per cage (two animals)): 4.0 | Use Enrichment D8 (IMI-psoriasis model, D8, 1 mg/kg, per cage (two animals)): 1.0 and 1.5 | Use Enrichment D10 (IMI-psoriasis model, D10, 1 mg/kg, per cage (two animals)): 2.5 and 3.5 and 2.0 | Use Enrichment D10 (IMI-psoriasis model, D10, 3 mg/kg, per cage (two animals)): 2.0 and 3.0 | Use Enrichment D10 (IMI-psoriasis model, D10, 10 mg/kg, per cage (two animals)): 3.0 and 4.0 | Use Enrichment D11 (IMI-psoriasis model, D11, 1 mg/kg, per cage (two animals)): 3.0 and 4.0 and 2.0 | Use Enrichment D11 (IMI-psoriasis model, D11, 3 mg/kg, per cage (two animals)): 3.0 and 4.0 | Use Enrichment D11 (IMI-psoriasis model, D11, 10 mg/kg, per cage (two animals)): 3.0 and 4.0 | Use Enrichment D12 (IMI-psoriasis model, D12, 1 mg/kg, per cage (two animals)): 2.0 and 2.5 and 4.0 | Use Enrichment D12 (IMI-psoriasis model, D12, 3 mg/kg, per cage (two animals)): 3.0 | Use Enrichment D12 (IMI-psoriasis model, D12, 10 mg/kg, per cage (two animals)): 2.0 and 4.0 and 3.0 | Use Enrichment D13 (IMI-psoriasis model, D13, 1 mg/kg, per cage (two animals)): 4.0 | Use Enrichment D13 (IMI-psoriasis model, D13, 3 mg/kg, per cage (two animals)): 4.0 | Use Enrichment D13 (IMI-psoriasis model, D13, 10 mg/kg, per cage (two animals)): 4.0 | Use Enrichment D14 (IMI-psoriasis model, D14, 1 mg/kg, per cage (two animals)): 4.0 | Use Enrichment D14 (IMI-psoriasis model, D14, 3 mg/kg, per cage (two animals)): 4.0 | Use Enrichment D14 (IMI-psoriasis model, D14, 10 mg/kg, per cage (two animals)): 4.0 | Use Enrichment D15 (IMI-psoriasis model, D15, 1 mg/kg, per cage (two animals)): 4.0 | Use Enrichment D15 (IMI-psoriasis model, D15, 3 mg/kg, per cage (two animals)): 4.0 | Use Enrichment D15 (IMI-psoriasis model, D15, 10 mg/kg, per cage (two animals)): 4.0 | Number Licking [1]: 3 (2×) and 5 and 1 and 4 and 2 (2×) and 0 | Number Licking + Scratching [1]: 3 (2×) and 5 (2×) and 8 and 2 (2×) and 0 | Number Scratching [1]: 0 (6×) and 7 and 1 | Number Licking [2]: 3 and 5 and 1 (3×) and 4 (2×) | Number Licking + Scratching [2]: 3 and 5 and 1 (3×) and 4 (2×) | Number Scratching [2]: 0 | Number Licking [3]: 2 (4×) and 7 and 1 and 4 and 5 | Number Licking + Scratching [3]: 3 and 11 and 2 (3×) and 4 (2×) and 5 | Number Scratching [3]: 1 (2×) and 4 and 0 (4×) and 2 | Distance Traveled (IMI-psoriasis model, 1 mg/kg): 18 m and 11 m and 14 m (2×) and 12 m and 16 m (2×) and 4 m | Number Rearings (IMI-psoriasis model, 1 mg/kg): 42 and 52 and 50 and 55 and 35 and 78 and 46 and 4 | Distance Traveled (IMI-psoriasis model, 3 mg/kg): 12 m (3×) and 13 m (2×) and 8 m and 9 m | Number Rearings (IMI-psoriasis model, 3 mg/kg): 41 and 43 and 34 (2×) and 24 and 8 and 47 | Distance Traveled (IMI-psoriasis model, 10 mg/kg): 4 m and 13 m (2×) and 10 m and 8 m and 7 m and 6 m and 11 m | Number Rearings (IMI-psoriasis model, 10 mg/kg): 6 and 39 and 38 and 46 and 11 and 21 and 13 and 55 | Use Enrichment Mean D1-D8 (IMI-psoriasis model, mean D1-D8, 1 mg/kg, per cage (two animals)): 2.50 and 2.75 | Use Enrichment Mean D1-D8 (IMI-psoriasis model, mean D1-D8, 3 mg/kg, per cage (two animals)): 2.50 and 2.00 and 2.25 | Use Enrichment Mean D1-D8 (IMI-psoriasis model, mean D1-D8, 10 mg/kg, per cage (two animals)): 2.50 and 2.75 and 2.00 | Use Enrichment Mean D8-D15 (IMI-psoriasis model, mean D8-D15, 1 mg/kg, per cage (two animals)): 3.00 and 3.36 and 3.14 | Use Enrichment Mean D8-D15 (IMI-psoriasis model, mean D8-D15, 3 mg/kg, per cage (two animals)): 3.00 and 3.14 and 2.86
